According to patent US20180188266A1, “Characterization of Type 1 Collagen Synthesis By Fluorescence Imaging and Related Drug Screening Technique” (Florida State University Research Foundation, Inc., priority 2017, published 2018):

Tested on: Type 1 collagen synthesis
Assay: Confocal fluorescence imaging of Type 1 collagen synthesis in cells expressing COLa1(I)/mTagBFP2 + WT COLa2(I)/mEmerald
Assay type: cell-based
Conditions: fixed human lung fibroblasts expressing COLa1(I)/mTagBFP2+WT COLa2(I)/mEmerald; treated for 24 hours vs untreated cell
Method: Three combinations of adenoviruses were used: • COLα1(I)/mTagBFP2 and WT COLα2(I)/mEmerald: images normal, regulated Type 1 collagen synthesis; • COLα1(I)/mTagBFP2 and MUT COLα2(I)/mEmerald: images collagen synthesis without regulation; and • COLα1(I)/mTagBFP2 and COLα2(I)/mEmeraldΔC: images absence of productive synthesis.
Adenoviruses were mixed in a ratio determined by the viral titer and added to human lung fibroblasts in culture. After 48 hours the cells were either fixed in 3.7% formalin, mounted on glass slides and imaged or they were directly imaged as live cells.
Confocal imaging of cells was performed either by Zeiss LSM 880 confocal microscope or Nikon Eclipse Ti laser spin disk confocal microscope in blue and green channels.
The drug used in the confocal microscopy imaging experiments was compound 60D17 of U.S. Pat. No. 8,729,090, which is incorporated by reference. Compound 60D17 has the following formula.

With `COC(=O)CNC(=O)c1cc2c(=O)n3cccc(C)c3nc2n1C` [compound 60D17] the “Effect on Type 1 collagen biosynthesis (confocal images, FIG. 4)” value was “perturbed”.
